Measured values: US20220064238A1, “Methods And Compositions For Modifying Transcription Factor Activity by Targeting The Human Mediator Complex Using Cell Penetrating Memetic Peptides And Methods of Treating Cancer Using The Same” (The Regents of the University of Colorado, a body corporate, priority 2020, published 2022)
Bridge positions count the residues as written; N and C are the ends. Square brackets hold non-standard residues; d marks the D form. Peptide text beside a SMILES is read from it. R8 = C=CCCCCCC[C@@](C)(N)C(=O)O; S5 = C=CCCC[C@](C)(N)C(=O)O

What was measured:
cells = settings: prior analysis; cited from earlier work
[1] = test system: pol II occupancy at the p21 locus; experiment: ChIP of RNA polymerase II occupancy at CDKN1A (p21); format: cell-based; settings: 3 h post-Nutlin, Ser5-phosphorylated pol II ChIP
Description: FIGS. 13A-B. Summary of ChIP experiments, showing that RNA polymerase II occupancy at the p53 target gene CDKN1A (p21) is reduced in cells treated with the bivalent peptide (peptide). A) Time course following Nutlin induction, to determine ideal time point to probe pol II occupancy at the p21 locus. […] However, pol II occupancy is reduced in cells treated with the bivalent peptide. […] Pol II phosphorylated at serine-5 of its C-terminal domain was used for ChIP analysis, because this is a proxy for initiating pol II at gene promoters (start sites). Data represent biological triplicates. Similar results were observed genome-wide, using ChIP-seq, although the timing of induction across p53 target genes will vary (data not shown).

[2] = test system: p53 target genes in HCT116 cells; experiment: RNA-Seq / GSEA in HCT116 cells, p53 pathway genes; format: cell-based, human
Protocol: To circumvent this issue, we used a well-tested electroporation protocol to enhance cell uptake of the bivalent peptide (see Methods). HCT116 cells were evaluated either in the presence of bivalent peptide or vehicle (water), with or without Nutlin-3a (FIG. 3A, B). Nutlin-3a is a small molecule that activates and stabilizes p53 by inhibiting MDM2, a repressor of p53. […] After 3 h Nutlin-3a treatment (or DMSO control, ±bivalent peptide), nuclear RNA was isolated and biological replicate RNA-Seq libraries were prepared (FIG. 9A; Table 1).
A confounding issue with these experiments was that cellular uptake of the bivalent peptide could not be accurately measured and could potentially vary from experiment-to-experiment. To assess this possibility more thoroughly, we completed an additional round of RNA-Seq experiments in control vs. Nutlin-treated HCT116 cells (FIG. 9B; Table 1). These additional experiments (RNA-Seq experiment 2) were completed with a slightly modified protocol that included treatment in serum-free media as an effort to enhance peptide uptake. Importantly, the data from RNA-Seq experiment 2 (biological triplicate; FIG. 10) were consistent with the first series of biological replicates (RNA-Seq experiment 1; FIG. 3C-E) and in each case, repression of p53-dependent transcription by the bivalent peptide tracked with Nutlin induction levels (FIG. 9CE). Nutlin-induced activation of p53 target genes was inhibited in the presence of the bivalent peptide, providing further evidence that the bivalent peptide blocks p53 response in cells. However, the scope and magnitude of the effect was reduced in this second, independent set of RNA-Seq experiments (e.g. compare FIG. 3C, D & FIG. 10C, D). This broadly consistent but variable magnitude effect can also be seen from RNA-Seq reads at specific p53 target genes (RNA-Seq experiment 1, FIG. 4A, B; RNA-Seq experiment 2, FIG. 4C, D). The overall p53 response to Nutlin-3a was reduced in RNA Seq experiment 2 (GSEA p53 pathway NES=2.76 in RNA-Seq experiment 1 vs. NES=1.59 in RNASeq experiment 2), which therefore reduced the transcriptional impact of the bivalent peptide. However, we cannot rule out variable cellular uptake of the bivalent peptide as a contributing factor.
Electroporation of bivalent peptide into HCT116 cells (RNA-Seq experiment 1): Two 6-well plates (HCT116 cells) were grown to about 80% confluency. Cells were then trypsinized, washed with PBS, and resuspended in 150 μL Neon Buffer R. The cells were then split into two groups: No peptide and 10 μM peptide. The cells were then drawn into a 10 μL Neon pipet tip, electroporated and ejected into 2 mL of McCoy's 5A media without antibiotic. For each experiment, two cell electroporation aliquots were added to media containing either 0.1% DMSO (control) or 10 μM Nutlin-3a (in DMSO, to a final concentration of 0.1%). For wells containing cells electroporated with peptide, an additional 200 nM peptide was added to the well to allow for peptide uptake during the experiment. The 6-well plate was then placed back at 37° C. for 3 hours. After 3 hours, cells were scraped from the plates, transferred to a 15 mL conical vial, pelleted at 1,000×g, and washed in 10 mL phosphate buffered saline (PBS) solution. To isolate the nuclei, cells were resuspended in 10 mL lysis buffer (10 mM Tris-HCl, pH 7.4, 2 mM MgCl2, 3 mM CaCl2), 0.5% NP-40, 10% glycerol) and thoroughly mixed. The nuclei were spun down at 1,000×g for 10 minutes, the lysis buffer was removed, and 1 mL of TRIzol was added. The nuclear RNA was isolated as described in the TRIzol instructions, except an additional phenol/chloroform extraction and chloroform-only extraction were performed to reduce contaminants. RNA was precipitated and washed twice with 75% ethanol to further remove contaminants. The RNA was then converted to cDNA using the High Capacity cDNA kit from Thermo Fisher Scientific. […]

basal transcription = experiment: In vitro transcription on naked DNA templates, basal (no activator); format: biochemical, human; settings: no GAL4-p53, naked DNA templates
Description: To screen peptides for the ability to selectively block p53-dependent transcription, we required an assay that enabled p53-dependent activation but that could also support basal (i.e. activator-independent) transcription. The present inventors had previously established an in vitro transcription assay (using highly purified human factors (FIG. 1A). A key feature of this assay was that both activated and basal transcription could be reconstituted on naked DNA templates (i.e. DNA templates not assembled into chromatin). To adapt this assay for purposes of measuring basal vs. p53-activated transcription, we generated templates with Gal4 DNA binding sites upstream of the adenovirus major late promoter sequence (FIG. 5A, B). Upon titration of a Gal4 DNA Binding Domain (DBD)-p53 Activation Domain (AD; residues 1-70) fusion protein into this system, we observed pol II-dependent transcription that was dependent on p53AD and Mediator (FIG. 5C). Reactions containing Gal4-p53AD generally produced about two- to four-fold more transcripts compared to reactions with no activator (FIG. 5C). Because experiments without Gal4-p53AD produced a low level of “basal” transcription that could be quantitated, this system allowed assessment of both p53-activated and basal transcription. […]

[3] = biological target: human Mediator complex (human)

Chain of GST-VP16AD (residues 411-490) (P08515 1-218, tags or fused parts left off): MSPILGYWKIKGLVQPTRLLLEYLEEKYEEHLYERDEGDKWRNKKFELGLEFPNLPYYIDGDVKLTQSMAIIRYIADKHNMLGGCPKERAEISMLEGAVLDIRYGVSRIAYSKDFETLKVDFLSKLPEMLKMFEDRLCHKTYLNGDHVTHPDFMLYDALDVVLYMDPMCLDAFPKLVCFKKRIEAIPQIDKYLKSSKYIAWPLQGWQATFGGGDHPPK

For CC(=O)N[C@@H](CCCNC(=N)N)C(=O)N[C@@H](CO)C(=O)N[C@@H](CCC(N)=O)C(=O)N[C@@H](CCC(=O)O)C(=O)N[C@@H](CCCNC(=N)N)C(=O)N[C@@H](Cc1ccccc1)C(=O)N[C@]1(C)CCCCCCC=CCCC[C@@](C)(C(=O)N[C@@H](CCCNC(=N)N)C(=O)N[C@@H](CCCNC(=N)N)C(N)=O)NC(=O)[C@H](CC(C)C)NC(=O)[C@H](CCCNC(=N)N)NC(=O)[C@H](CCCCN)NC(=O)[C@H](Cc2c[nH]c3ccccc23)NC(=O)[C@H](CC(C)C)NC(=O)[C@H](CC(=O)O)NC1=O [BP1.4] (Ac-RSQERF[R8]DLWKRL[S5]RR-NH2; staple 7-14; C-terminus assumed), the cellular uptake (cells) is listed as “not effectively taken up by cells”.

In the case of COc1ccc(C2=N[C@@H](c3ccc(Cl)cc3)[C@@H](c3ccc(Cl)cc3)N2C(=O)N2CCNC(=O)C2)c(OC(C)C)c1 [Nutlin-3a, reference compound], the “pol II occupancy at the p21 locus” value [1] is reported as “strongly induced pol II at the p21 locus”, the “expression of p53 target genes” value ([2]; Nutlin-3a 10 μM, 3 h, HCT116) is reported as “induced expression of p53 target genes” and the “GSEA p53 pathway NES, Nutlin response without peptide” value ([2]; RNA-Seq experiment 1) is reported as 2.76. For the same compound, the “GSEA p53 pathway NES, Nutlin response without peptide” value ([2]; RNA-Seq experiment 2) was 1.59.

With “BP1.5: N-acetylated hydrocarbon-stapled penta-arg p53AD1 mimic, SEQ ID NO. 5 RRETFZDRWKRLXRN” the “effect on basal transcription, initial screen” value (basal transcription; 5 μM peptide) was “did not affect basal transcription” and the “effect on basal transcription, follow-up experiments” value (basal transcription) was “negatively affected basal transcription to some degree”.

“GST-VP16AD (residues 411-490) (from UniProt P08515 1-218; P06492 411-490)” gave a fold change of Mediator-bound VP16 with bivalent peptide vs. without [3] of 1.67 fold.
